Measured values: ChEMBL document CHEMBL1201862, “PubChem BioAssay data set” (2004)
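Protocol summary: plate cells (96-well), add compound at 5 concentrations, incubate 48 h, interpolate endpoints linearly. The concentration for 50% growth inhibition is given as GI50.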 Active and inactive are the calls of the source. Rule as the data show it: active = GI50 up to about 1.1 µM and inactive = higher.

Key:
Assay in all cases: DTP human tumour cell line panel, 48 h
[1] = tested on: OVCAR-3
[2] = tested on: SF-268
[3] = tested on: UACC-257
[4] = tested on: 786-0
[5] = tested on: OVCAR-8
[6] = tested on: HOP-92
[7] = tested on: MCF7
[8] = tested on: HT-29
[9] = tested on: IGROV-1
[10] = tested on: SN12C
[11] = tested on: A549
[12] = tested on: SF-539
[13] = tested on: NCI-H460
[14] = tested on: UACC-62
[15] = tested on: K562
[16] = tested on: OVCAR-5
[17] = tested on: T47D
[18] = tested on: Hs-578T
[19] = tested on: OVCAR-4
[20] = tested on: RPMI-8226

Structure (SMILES)	GI50 [1]	GI50 [2]	GI50 [3]	GI50 [4]	GI50 [5]	GI50 [6]	GI50 [7]	GI50 [8]	GI50 [9]	GI50 [10]	GI50 [11]	GI50 [12]	GI50 [13]	GI50 [14]	GI50 [15]	GI50 [16]	GI50 [17]	GI50 [18]	GI50 [19]	GI50 [20]
S=C(N/N=C(/c1ccccc1)c1ccccn1)N(Cc1ccccn1)Cc1ccccn1	0.183 µM (active)	0.196 µM (active)	0.0425 µM (active)	0.475 µM (active)	< 0.01 µM (active)	0.174 µM (active)	< 0.01 µM (active)	< 0.01 µM (active)	< 0.01 µM (active)	< 0.01 µM (active)	0.435 µM (active)	0.119 µM (active)	0.116 µM (active)	0.338 µM (active)	< 0.01 µM (active)	0.427 µM (active)	< 0.0177 µM (active)	1.41 µM (inactive)	0.507 µM (active)	< 0.0302 µM (active)
C=CC(C)(C)NC(C(=O)N1CCC[C@H]1c1nc(-c2nc(C(=O)OCC=C(C)C)c(C)o2)c(C)o1)C(C)C (stereo not given in full)	46.6 µM (inactive)	> 100 µM (inactive)	> 58.7 µM (inactive)	> 58.1 µM (inactive)	> 58.6 µM (inactive)	23.3 µM (inactive)	> 53.8 µM (inactive)	> 52 µM (inactive)	52.1 µM (inactive)	> 47.8 µM (inactive)	> 58.9 µM (inactive)	> 48.2 µM (inactive)	31.9 µM (inactive)	37.8 µM (inactive)	> 60.7 µM (inactive)	> 76 µM (inactive)	74.8 µM (inactive)	81.5 µM (inactive)	33.3 µM (inactive)	> 100 µM (inactive)
O=C(O)C(Cc1ccccc1)NCc1c(O)ccc2c(-c3ccccc3)cc(=O)oc12 (stereo not given)	> 100 µM (inactive)	> 100 µM (inactive)	> 100 µM (inactive)	> 100 µM (inactive)	> 100 µM (inactive)	> 100 µM (inactive)	> 100 µM (inactive)	> 100 µM (inactive)	> 100 µM (inactive)	> 100 µM (inactive)	> 100 µM (inactive)	> 100 µM (inactive)	> 100 µM (inactive)	> 100 µM (inactive)	> 100 µM (inactive)	> 100 µM (inactive)	> 100 µM (inactive)	> 100 µM (inactive)	> 100 µM (inactive)	> 100 µM (inactive)
NS(=O)(=O)c1ccc(NC(=O)c2ccc3nc4ccccc4c(Nc4ccc(S(N)(=O)=O)cc4)c3c2)cc1	> 100 µM (inactive)	87.5 µM (inactive)	> 100 µM (inactive)	> 100 µM (inactive)	> 100 µM (inactive)	> 100 µM (inactive)	> 100 µM (inactive)	> 100 µM (inactive)	> 100 µM (inactive)	> 100 µM (inactive)	> 100 µM (inactive)	> 100 µM (inactive)	8.75 µM (inactive)	> 100 µM (inactive)	> 100 µM (inactive)	> 100 µM (inactive)	> 100 µM (inactive)	> 100 µM (inactive)	> 100 µM (inactive)	> 100 µM (inactive)
SC1CCCN(Cc2ccccc2)C1 (stereo not given)	> 100 µM (inactive)	65.2 µM (inactive)	32.4 µM (inactive)	35.7 µM (inactive)	46.1 µM (inactive)	60 µM (inactive)	20.8 µM (inactive)	21 µM (inactive)	59.8 µM (inactive)	95.3 µM (inactive)	53.7 µM (inactive)	> 100 µM (inactive)	23.9 µM (inactive)	44.8 µM (inactive)	23.8 µM (inactive)	> 100 µM (inactive)	27.5 µM (inactive)	78.5 µM (inactive)	56.9 µM (inactive)	21.3 µM (inactive)
O=C(Cc1ccccc1CCO)NCCc1ccccc1	> 100 µM (inactive)	> 100 µM (inactive)	> 100 µM (inactive)	> 100 µM (inactive)	> 100 µM (inactive)	> 100 µM (inactive)	> 100 µM (inactive)	> 100 µM (inactive)	> 100 µM (inactive)	> 100 µM (inactive)	> 100 µM (inactive)	> 100 µM (inactive)	> 100 µM (inactive)	> 100 µM (inactive)	> 100 µM (inactive)	> 100 µM (inactive)	> 100 µM (inactive)	> 100 µM (inactive)	> 100 µM (inactive)	> 100 µM (inactive)
CC(=O)c1c2c(cc3c1CC1(C3)Cc3ccc4c(c3C1=O)CCC4)CCC2 (stereo not given)	> 100 µM (inactive)	> 100 µM (inactive)	2.75 µM (inactive)	> 100 µM (inactive)	75.3 µM (inactive)	8.85 µM (inactive)	16.7 µM (inactive)	11.8 µM (inactive)	87.3 µM (inactive)	48.2 µM (inactive)	21.5 µM (inactive)	> 100 µM (inactive)	38.6 µM (inactive)	44.5 µM (inactive)	6.58 µM (inactive)	> 100 µM (inactive)	9.73 µM (inactive)	13.5 µM (inactive)	23.9 µM (inactive)	13.5 µM (inactive)
CC1CC[C@@]2(OC1)OC1C[C@H]3[C@@H]4CC=C5C[C@@H](OC6OC(CO)C(OC7OC(CO)C(O)C(O)C7O)C(O)C6OC6OC(C)C(O)C(O)C6O)CC[C@]5(C)[C@H]4CC[C@]3(C)C1[C@@H]2C (stereo not given in full)	0.643 µM (active)	0.593 µM (active)	0.526 µM (active)	0.49 µM (active)	0.659 µM (active)	0.729 µM (active)	0.587 µM (active)	0.475 µM (active)	0.516 µM (active)	0.635 µM (active)	0.746 µM (active)	0.491 µM (active)	0.685 µM (active)	0.469 µM (active)	0.466 µM (active)	1.42 µM (inactive)	0.513 µM (active)	0.714 µM (active)	1.53 µM (inactive)	0.526 µM (active)
CC1=C(C(=O)OCCO[N+](=O)[O-])C(c2cccc([N+](=O)[O-])c2)C(C(=O)OC(C)C)=C(C)N1 (stereo not given)	10.4 µM (inactive)	13.1 µM (inactive)	12.3 µM (inactive)	13.3 µM (inactive)	16.1 µM (inactive)	11 µM (inactive)	19.6 µM (inactive)	15.2 µM (inactive)	14 µM (inactive)	17.4 µM (inactive)	12.9 µM (inactive)	14.2 µM (inactive)	13.8 µM (inactive)	14.5 µM (inactive)	18.2 µM (inactive)	14.9 µM (inactive)	15.6 µM (inactive)	7.71 µM (inactive)	3.76 µM (inactive)	2.58 µM (inactive)
CC12CC3OC(=O)C1COC14OC5(C2C1=O)C(O)(CCC1C4CC(O)C2(O)CC=CC(=O)C12C)C(=O)OC35C (stereo not given)	> 100 µM (inactive)	> 100 µM (inactive)	> 100 µM (inactive)	> 100 µM (inactive)	> 100 µM (inactive)	> 100 µM (inactive)	> 100 µM (inactive)	> 100 µM (inactive)	> 100 µM (inactive)	> 100 µM (inactive)	> 100 µM (inactive)	> 100 µM (inactive)	> 100 µM (inactive)	> 100 µM (inactive)	> 100 µM (inactive)	> 100 µM (inactive)	> 100 µM (inactive)	> 100 µM (inactive)	> 100 µM (inactive)	> 100 µM (inactive)
Cc1ccc(S(=O)(=O)Nc2nc3ccccc3c(=O)n2C2CCCCC2)cc1	76.7 µM (inactive)	> 100 µM (inactive)	> 100 µM (inactive)	> 100 µM (inactive)	> 100 µM (inactive)	67.5 µM (inactive)	> 100 µM (inactive)	> 100 µM (inactive)	> 100 µM (inactive)	> 100 µM (inactive)	> 100 µM (inactive)	> 100 µM (inactive)	97.1 µM (inactive)	77.4 µM (inactive)	> 100 µM (inactive)	> 100 µM (inactive)	> 100 µM (inactive)	62.5 µM (inactive)	51.8 µM (inactive)	> 100 µM (inactive)
CC1(C)COCN1COC1CCCCC1	> 100 µM (inactive)	> 100 µM (inactive)	> 100 µM (inactive)	> 100 µM (inactive)	> 100 µM (inactive)	> 100 µM (inactive)	> 100 µM (inactive)	> 100 µM (inactive)	> 100 µM (inactive)	> 100 µM (inactive)	> 100 µM (inactive)	> 100 µM (inactive)	> 100 µM (inactive)	> 100 µM (inactive)	92.7 µM (inactive)	> 100 µM (inactive)	> 100 µM (inactive)	> 100 µM (inactive)	> 100 µM (inactive)	> 100 µM (inactive)
C[C@]12CC[C@H]3[C@@H](CC=C4C[C@@H](O)CC[C@@]43C)[C@@H]1C[C@H](N1CCOCC1)[C@@H]2O	> 100 µM (inactive)	> 100 µM (inactive)	> 100 µM (inactive)	81.5 µM (inactive)	> 100 µM (inactive)	> 100 µM (inactive)	> 100 µM (inactive)	6.34 µM (inactive)	> 100 µM (inactive)	> 100 µM (inactive)	> 100 µM (inactive)	40 µM (inactive)	> 100 µM (inactive)	> 100 µM (inactive)	68.4 µM (inactive)	> 100 µM (inactive)	> 100 µM (inactive)	85.5 µM (inactive)	> 100 µM (inactive)	> 100 µM (inactive)
